Test results published in patent US9650405B2, “Modified sophorolipids as oil solubilizing agents” (Polytechnic Institute of New York University, priority 2010, dated 2017).
Read-outs that look alike come from different tables or passages of the source.

Tests used:
[1] = Solubility of MSLs in water
Text: If the material precipitates upon cooling or was to some extent insoluble, the insoluble material was separated by filtration, dried and weighed.

[2] = Solubility in distilled water without additives, compounds alone and mixed; conditions: without any additives
[3] = Crude oil clearing/displacement activity; conditions: 20 μL of 1 mg/mL solution
Procedure: Oil cleaning assays were performed using Louisiana Crude, Arabian Light Crude, and Prudhoe Bay Crude as the oil phase. In one study, the oil clearing/displacement activity of MSLs were assessed using a crude oil layer on top of sea water in order to simulate oil spill type conditions. Sea water (20 mL) was transferred to plastic Petri dishes and 20 μL of a crude oil type was added on top of the water to create an oil layer. Subsequently, a 20 μL aliquot of MSL solution (1 mg/mL) was added dropwise to the top of the oil layer. The instantaneous formation of an oil clearing zone as well as the diameter of the clearing zone was determined as a function of the dispersant used. […] Furthermore, the oil displacement activity of SL-ethyl ester and SL-butyl ester was slightly higher than Triton-X-100 for Arabian Light crude.

[4] = Emulsion type: dilution test and oil soluble dye staining; type: physicochemical; conditions: for emulsion type by Oil Red O staining: 2%-by-weight relative to water phase, oil/water 5/5 and 7/3
Procedure: In this test the emulsion is diluted either with oil (O) or water (W). If the emulsion is O/W type and it is diluted with water, it will remain stable as water is the dispersion medium. However, if the emulsion is O/W type and it is diluted with oil, the emulsion will break as oil and water are not miscible with each other. […] Emulsions of the O/W type have separated layers after dilution with pure oil but form a homogenous phase when diluted by water. Unless otherwise specified, the emulsion type formed by MSLs were oil in water.
In FIG. 13B, the tube on the left was diluted with 1 mL of oil whereas the tube on right was diluted with water. Visual observation of the tubes in FIG. 13B supports that the emulsions formed are indeed O/W emulsions.
Oil Red O was applied as an oil soluble dye and emerald green as water soluble dye in the process of emulsion preparation. Observations of emulsions were made before and after staining under optical microscope at 400× magnification (FIG. 14). […] The formation of O/W emulsions and not W/O emulsions with this set of MSL compounds would not be obvious to one skilled in the art. We believe that O/W emulsions are formed by this set of MSLs due to that large sophorose polar head groups requires relatively more space than the lipid tails and, therefore self-assemble into spherical type structures where disaccharide groups are locating outside the droplets.

[5] = Emulsion stability based on phase separation; type: physicochemical; conditions: for emulsion layer percentage: paraffin oil/water 5/5, 2%-by-weight emulsifier, after 24 hours at 25° C.
Procedure: The emulsion was obtained by homogenizing the oil and water mixture and was allowed to settle at room temperature for 24 hours. […] Then, this mixture was homogenized at 13,000 rpm for 2 minutes. Thereafter, the resulting emulsion was left unagitated at 25° C. for 24 hours. Surfactants which give a larger emulsion phase are denoted as having higher emulsion effectiveness (Process Safety and Environment protection, 2005, 83, 38-46). […] Thus, unexpectedly, that longer alkyl chains, at least up to butyl and hexyl, provided improved interfacial stability at the paraffin oil/water interface. […] Apparently, ester bonds of SL-esters are less disruptive to organization at the oil water interface than amide bonds of SL-amides. […] The acidic SL (3) gave an 8% emulsion layer, much lower than the MSL examples given herein. Similarly, the natural SL (1) mixture gave a 10% emulsion layer. This performance is also far below that of SL-butyl amide (24), hexyl amide (25), butyl ester (8) and hexyl ester (16).
After homogenized at 13,000 rpm for 2 minutes, the emulsions were kept at room temperature and separation of the respective oil, emulsion and water layers was recorded for up to 1 month.

[6] = SL-esters; from earlier publication in Colloids and surfaces, 2004, 240, 75; cited from earlier work
[7] = Crude oil emulsification activity (turbidity at 610 nm); conditions: emulsifier 1 mg/mL
Procedure: Emulsification activity was assessed using Louisiana Crude, Arabian Light Crude, and Prudhoe Bay Crude as the oil phase. A 2 mL solution with emulsifier concentration of 1 mg/mL was prepared. A crude oil (10 mg) was added to the emulsifier aqueous solution, the mixture was vortexed for one minute and the emulsified mixture was allowed to stand for 20 minutes. Emulsification activity was determined by measuring turbidity of the emulsion mixture in a spectrophotometer at 610 nm. The results obtained using SL-ethyl ester, SL-butyl ester, the natural sophorolipid mixture and Triton X-100 as emulsifiers are expressed as D610 and are listed in Table 8. […] Furthermore, a remarkable improvement in emulsification activity was obtained for SL-butyl ester relative to the natural sophorolipid mixture. These comparative results for emulsification of Louisiana Crude, Arabian Light Crude, and Prudhoe Bay Crude oil phase could not be anticipated by one skilled in the art.

[8] = Surface tension versus surfactant concentration: CMC and minimum surface tension; type: physicochemical; conditions: SL-amides; 25° C.
Procedure: The surface tension change with the increase of surfactant concentration of a series of SL amides was measured at 25° C. and the results are shown in Table 2. CMC and minimum surface tension (MST) decrease as the chain length of the n-alkyl amide moiety increase. […] This trend can be explained by the increased hydrophobicity of the surfactant hydrophobic tail with increased chain length of the n-alkyl amide.
The relation of CMC within a homologous series of surfactants and the carbon chain length (straight-chain), n, is usually described as: Log (CMC)=A−Bn (1)
Where A and B are constants specific to the series and n is the carbon on the hydrophobic chains. It was reported that the CMC of alkyl-β-D-glucoside decreased by ⅓ for each additional CH2 group (L. Zhang. D.E.S. Thesis, Columbia University). For a series of SL-esters prepared from n-alkanols of varying chain length, the CMC decreased by ½ per additional CH2 group (L. Zhang Colloid Surface, 240, 2004, 75).

[9] = Emulsion droplet size distribution, Coulter LS 230 analyzer; type: physicochemical; conditions: paraffin oil-to-water 7:3 v/v, 25° C.
Procedure: Emulsified oil droplet size (average and standard deviation) was measured after suitable dilution of the emulsion phase using a Coulter LS 230 analyzer. […] Relative to natural and lactonic SL, selected MSLs show improved properties as emulsifiers on paraffin oil.
After being aged for 3-months, emulsified oil droplet size (average and standard deviation) was measured after suitable dilution of the emulsion phase using a Coulter LS 230 analyzer and the results are listed in Table 5. […] However, increasing the surfactant concentration from 1 to 2% did result in substantially smaller emulsion-phase droplet sizes. […] This is evidence that MSL's can stabilize oil phases greatly decreasing their tendency to undergo coalescence. […] It follows that the results of 3-month aging studies support the utility of selected MSLs for formation and stabilization of oil-in-water emulsions of paraffin oil phases. One skilled in the art would expect that the ability of these MSLs to stabilize paraffin oil phases teaches that they would also stabilize oil phases of similar structure.

[10] = Emulsion viscosity measurement; type: physicochemical; conditions: oil/water 7/3, 1% MSL, shear rate 1 S^−1
Procedure: Viscosity was measured at 25° C. with increasing shear rate from 1 S^−1 to 750 S^−1. The viscosity change was monitored for aging times up to 3 months. For all samples, the paraffin oil/water ratio is 7/3 and the surfactant concentrations studied were 0.5%, 1% to 2%-by-weight relative to the oil phase. FIG. 19 presents the viscosity change with shear rate for different aging times. […] The emulsion tested was prepared using 2%-by-weight SL-butyl ester relative to paraffin oil. Viscosity decreases with increased shear rate implying the emulsion follows shear shinning. Furthermore, viscosity decreased with increased storage time. […] This change is consistent with the small increase in oil phase particle size (1.7 to 2.1 μm) with aging from 1 day to 3-months (Tables 4 and 5).
Values of ηlow decreased with storage time to various extents that are dependent on the MSL compound used to stabilize the emulsion. […] The relative ability of different MSL structures to stabilize emulsions and thereby decrease the extent of decrease in viscosity as a function of aging time would not be predictable by one skilled in the art. The behavior as a function of MSL structure is related to emulsion dispersed phase droplet size. That is, the smaller the change in droplet size, the less decrease in emulsion viscosity occurs with increased aging time. Smaller changes in droplet size reflects the ability of the emulsifier to better stabilize particles. For example, the viscosity of the emulsion stabilized by SL-butyl amide decreased by 65% (from 344 Pas to 120 Pas) whereas the viscosity of the emulsion stabilized by SL-hexyl ester decreased by 20% (from 457 Pas to […]).
The viscosity was measured 24 hours after emulsion preparation. The viscosity increased with increasing surfactant concentration. Such behavior could not have been predicted by one skilled in the art without the teaching provided in this disclosure. The extent of viscosity change with surfactant concentration is related to the interfacial free energy at the droplet surface that reduces with the increase of surfactant concentration.

[11] = Arabian Light Crude on sea water

Structure (SMILES) | Solubility ([1]; distilled water, 25° C.) [µg/mL] | solubility in distilled water [2] | Oil displacement activity (diameter of the clearing zone) [3, 11] [cm] | Oil displacement activity (diameter of the clearing zone) ([3]; Louisiana Crude on sea water) [cm] | Oil displacement activity (diameter of the clearing zone) ([3]; Prudhoe Bay Crude on sea water) [cm] | emulsion type by Oil Red O staining [4] | emulsion layer percentage [5] | CMC Range [6] | MST (minimum surface tension) [6] [mN/m] | Solubility [1] [µg/mL] | CMC Range [8] | MST (minimum surface tension) [8] [mN/m] | Average droplet size ([9]; 0.5 weight %, 24 hours) [μm] | Average droplet size ([9]; 0.5 weight %, aged 3-months) [μm] | Average droplet size ([9]; 1 weight %, 24 hours) [μm] | Average droplet size ([9]; 1 weight %, aged 3-months) [μm] | Average droplet size ([9]; 2 weight %, 24 hours) [μm] | Average droplet size ([9]; 2 weight %, aged 3-months) [μm] | also measured
COC(=O)CCCCCCCC=CCCCCCCC(C)OC1OC(CO)C(O)C(O)C1OC1OC(CO)C(O)C(O)C1O (stereo not drawn) [Compound 6, SL-Methyl Ester] | <1000 | less than 1 mg/L | 5.5 ± 0.1 | 6.5 ± 0.4 | 6.9 ± 0.1 | O/W | no emulsion layer was observed | 95-100 10^−6M | 38.4 |  |  |  |  |  |  |  |  |  | Solubility ([1]; distilled water, 25° C., listed as methyl ester): < 1000 µg/mL
CCOC(=O)CCCCCCCC=CCCCCCCC(C)OC1OC(CO)C(O)C(O)C1OC1OC(CO)C(O)C(O)C1O (stereo not drawn) [Compound 7, SL-Ethyl Ester] |  | less than 1 mg/L | 6.5 ± 0.2 | 6.3 ± 0.9 | 6.6 ± 0.7 | O/W | no emulsion layer was observed | 36-40 10^−6M | 37.5 | <3000 |  |  |  |  |  |  |  |  | Emulsification activity (D610) ([7]; Arabian Crude): 0.91; Emulsification activity (D610) ([7]; Louisiana Crude): 0.42; Emulsification activity (D610) ([7]; Prudhoe Crude): 0.32
CNC(=O)CCCCCCCC=CCCCCCCC(C)OC1OC(CO)C(O)C(O)C1OC1OC(CO)C(O)C(O)C1O (stereo not drawn) [Compound 22, SL-Methyl Amide] |  |  |  |  |  | O/W | no emulsion layer was observed |  |  |  | 650-670 10^−6M | 43.3 |  |  |  |  |  |  | 
CCNC(=O)CCCCCCCC=CCCCCCCC(C)OC1OC(CO)C(O)C(O)C1OC1OC(CO)C(O)C(O)C1O (stereo not drawn) [Compound 23, SL-Ethyl Amide] |  |  |  |  |  | O/W | no emulsion layer was observed |  |  | >40000 | 300-310 10^−6M | 40.9 |  |  |  |  |  |  | 
CCCCNC(=O)CCCCCCCC=CCCCCCCC(C)OC1OC(CO)C(O)C(O)C1OC1OC(CO)C(O)C(O)C1O (stereo not drawn) [Compound 24, SL-Butyl Amide] |  |  |  |  |  | O/W | 20% |  |  | >40000 | 45-50 10^−6M | 38.7 | 3.0 ± 0.2 | 6.3 ± 1.0 | 2.5 ± 0.2 | 4.7 ± 0.8 | 1.9 ± 0.1 | 3.0 ± 0.4 | emulsion layer in 3 days ([5]; oil/water 5/5, 2%-by-weight, 3 days): not observed in 3 days; low shear emulsion viscosity, after aging period [10]: 120 Pas; low shear emulsion viscosity, before aging [10]: 344 Pas; viscosity decrease over the aging period [10]: 65%
CCCCCCNC(=O)CCCCCCCC=CCCCCCCC(C)OC1OC(CO)C(O)C(O)C1OC1OC(CO)C(O)C(O)C1O (stereo not drawn) [Compound 25, SL-Hexyl Amide] | <11000 |  |  |  |  | O/W | 60% |  |  |  | 29-32 10^−6M | 36.5 | 2.7 ± 0.4 | 4.0 ± 0.4 | 2.7 ± 0.2 | 3.7 ± 0.7 | 1.7 ± 0.1 | 2.2 ± 0.5 | emulsion type by dilution test ([4]; 2 weight % emulsifier, water/oil ratio 5/5, paraffin): O/W emulsions; emulsion layer volume-%, one month ([5]; oil/water 5/5, 2%-by-weight, one month at room temperature): 10%; emulsion layer volume-%, start ([5]; oil/water 5/5, 2%-by-weight, start of aging): 65%
